Measurements: patent publication US8466181B2, “1,2,3-triazole-imidazole compounds” (Hoffmann-La Roche Inc., priority 2010, dated 2013)

Biological target: T1, human GABA A receptor α5β3γ2 (GABA Aa5) (Homo sapiens, UniProt P18507+P31644)
T1 construct: expressed in transfected cells; host or cells: HEK293 cells, transiently transfected; membranes prepared
Test: [3H]flumazenil competition binding, HEK293 cells expressing human receptors
Conditions: not given
Procedure: The ability of compounds present invention to bind to GABA A receptor subtypes was determined by competition for [^3H]flumazenil (85 Ci/mmol; Roche) binding to HEK293 cells expressing rat (stably transfected) or human (transiently transfected) receptors of composition α1β2/3γ2, α2β3γ2, α3β3γ2 and α5β3γ2.
Cell pellets were suspended in Krebs-tris buffer (4.8 mM KCl, 1.2 mM CaCl2, 1.2 mM MgCl2, 120 mM NaCl, 15 mM Tris; pH 7.5; binding assay buffer), homogenized by polytron for ca. 20 sec on ice and centrifuged for 60 min at 4° C. (50000 g; Sorvall, rotor: SM24=20000 rpm). The cell pellets were resuspended in Krebs-tris buffer and homogenized by polytron for ca. 15 sec on ice. Protein was measured (Bradford method, Bio-Rad) and aliquots of 1 mL were prepared and stored at −80° C.
Assays were incubated to equilibrium for 1 hour at 4° C. and harvested onto GF/C uni-filters (Packard) by filtration using a Packard harvester and washing with ice-cold wash buffer (50 mM Tris; pH 7.5). After drying, filter-retained radioactivity was detected by liquid scintillation counting.
Ki values were calculated using Excel-Fit (Microsoft) and are the means of two determinations.
Representative test results, obtained by the above described assay measuring binding affinity to HEK293 cells expressing human (h) receptors, are shown in Table 1 below.

SMILES | Ki
CC(=O)c1ccc(-n2cnc(-c3c(-c4ccccc4F)nnn3C)c2)cc1 [Example 10, 1-(4-(4-(4-(2-Fluorophenyl)-1-methyl-1H-1,2,3-triazol-5-yl)-1H-imidazol-1-yl)phenyl)ethanone] | 29.6 nM

Same assay, conditions: displacement of [3H]flumazenil 0.5 nM; HEK293 transiently transfected human receptors; means of two determinations; read-out: hKi (GABA Aa5)

SMILES | Ki
CC(C)NC(=O)c1ccc(-n2cnc(-c3c(-c4ccccc4F)nnn3C)c2)nc1 [Example 23, 6-(4-(4-(2-Fluorophenyl)-1-methyl-1H-1,2,3-triazol-5-yl)-1H-imidazol-1-yl)-N-isopropylnicotinamide] | 54.9 nM
Cn1nnc(-c2ccccc2F)c1-c1cn(-c2ccc(C(F)(F)F)cn2)cn1 [Example 30, 2-(4-(4-(2-Fluorophenyl)-1-methyl-1H-1,2,3-triazol-5-yl)-1H-imidazol-1-yl)-5-(trifluoromethyl)pyridine] | 65 nM
Cc1nnn(-c2ccccc2F)c1-c1cn(-c2ccc(C(=O)NN3CCOCC3)cn2)cn1 [Example 51, 6-(4-(1-(2-Fluorophenyl)-4-methyl-1H-1,2,3-triazol-5-yl)-1H-imidazol-1-yl)-N-morpholinonicotinamide] | 50.5 nM
Cc1nnn(-c2ccccc2F)c1-c1cn(-c2ccc(C(=O)NC3CCOCC3)cn2)cn1 [Example 46, 6-(4-(1-(2-Fluorophenyl)-4-methyl-1H-1,2,3-triazol-5-yl)-1H-imidazol-1-yl)-N-(tetrahydro-2H-pyran-4-yl)nicotinamide] | 49 nM
Cn1nnc(-c2ccc(F)cc2)c1-c1cn(-c2ccc(C(F)(F)F)cn2)cn1 [Example 15, 2-{4-[5-(4-Fluoro-phenyl)-3-methyl-3H-[1,2,3]triazol-4-yl]-imidazol-1-yl}-5-trifluoromethyl-pyridine] | 82.2 nM
COC(=O)c1ccc(-n2cnc(-c3c(C)nnn3-c3ccccc3F)c2)cc1 [Example 33, Methyl 4-(4-(1-(2-fluorophenyl)-4-methyl-1H-1,2,3-triazol-5-yl)-1H-imidazol-1-yl)benzoate] | 34.5 nM
Cn1nnc(-c2ccccc2F)c1-c1cn(-c2ccc(C(=O)NC3CCOCC3)cn2)cn1 [Example 22, 6-(4-(4-(2-Fluorophenyl)-1-methyl-1H-1,2,3-triazol-5-yl)-1H-imidazol-1-yl)-N-(tetrahydro-2H-pyran-4-yl)nicotinamide] | 43.3 nM
Cn1nnc(-c2ccccc2F)c1-c1cn(-c2ccc([N+](=O)[O-])cc2)cn1 [Example 9, 4-(2-Fluorophenyl)-1-methyl-5-(1-(4-nitrophenyl)-1H-imidazol-4-yl)-1H-1,2,3-triazole] | 76.3 nM
Cn1nnc(-c2ccccc2Cl)c1-c1cn(-c2ccc(C(N)=O)cn2)cn1 [Example 19, 6-(4-(4-(2-Chlorophenyl)-1-methyl-1H-1,2,3-triazol-5-yl)-1H-imidazol-1-yl)nicotinamide] | 66.2 nM
Cc1nnn(-c2ccc(F)cc2)c1-c1cn(-c2ccc(C(F)(F)F)cc2)cn1 [Example 31, 1-(4-Fluoro-phenyl)-4-methyl-5-[1-(4-trifluoromethyl-phenyl)-1H-imidazol-4-yl]-1H-[1,2,3]triazole] | 49.2 nM
Cn1nnc(-c2ccccc2F)c1-c1cn(-c2ccc(C(=O)N3CC4(COC4)C3)cn2)cn1 [Example 26, (6-(4-(4-(2-Fluorophenyl)-1-methyl-1H-1,2,3-triazol-5-yl)-1H-imidazol-1-yl)pyridin-3-yl)(2-oxa-6-azaspiro[3.3]heptan-6-yl)methanone] | 66.5 nM
COC(=O)c1ccc(-n2cnc(-c3c(-c4ccccc4Cl)nnn3C)c2)nc1 [Example 17, Methyl 6-(4-(4-(2-chlorophenyl)-1-methyl-1H-1,2,3-triazol-5-yl)-1H-imidazol-1-yl)nicotinate] | 68.8 nM
Cn1nnc(-c2ccc(F)cc2)c1-c1cn(-c2ccc(C(=O)N3CC4(COC4)C3)cc2)cn1 [Example 6, (4-{4-[5-(4-Fluoro-phenyl)-3-methyl-3H-[1,2,3]triazol-4-yl]-imidazol-1-yl}-phenyl)-(2-oxa-6-aza-spiro[3.3]hept-6-yl)-methanone] | 51.3 nM
Cc1nnn(-c2ccc(F)cc2)c1-c1cn(-c2ccc(C(=O)N3CC4(COC4)C3)cn2)cn1 [Example 39, (6-(4-(1-(4-Fluorophenyl)-4-methyl-1H-1,2,3-triazol-5-yl)-1H-imidazol-1-yl)pyridin-3-yl)(2-oxa-6-azaspiro[3.3]heptan-6-yl)methanone] | 35.8 nM

Other lines, results leading:

Ki | SMILES
21.3 nM | Cn1nnc(-c2ccccc2F)c1-c1cn(-c2ccc(C(=O)NCC(C)(C)O)cn2)cn1 [Example 24, 6-(4-(4-(2-Fluorophenyl)-1-methyl-1H-1,2,3-triazol-5-yl)-1H-imidazol-1-yl)-N-(2-hydroxy-2-methylpropyl)nicotinamide]
14.7 nM | CC(C)NC(=O)c1ccc(-n2cnc(-c3c(-c4ccc(F)cc4)nnn3C)c2)nc1 [Example 11, 6-{4-[5-(4-Fluoro-phenyl)-3-methyl-3H-[1,2,3]triazol-4-yl]-imidazol-1-yl}-N-isopropyl-nicotinamide]
23.8 nM | Cn1nnc(-c2ccc(F)cc2)c1-c1cn(-c2ccc(C(=O)NC3(C)COC3)cc2)cn1 [Example 5, 4-{4-[5-(4-Fluoro-phenyl)-3-methyl-3H-[1,2,3]triazol-4-yl]-imidazol-1-yl}-N-(3-methyl-oxetan-3-yl)-benzamide]
16.1 nM | Cn1nnc(-c2ccccc2F)c1-c1cn(-c2ccc(C(=O)NC3(C)COC3)cn2)cn1 [Example 27, 6-(4-(4-(2-Fluorophenyl)-1-methyl-1H-1,2,3-triazol-5-yl)-1H-imidazol-1-yl)-N-(3-methyloxetan-3-yl)nicotinamide]
17.8 nM | Cc1nnn(-c2ccccc2F)c1-c1cn(-c2ccc(C(N)=O)cn2)cn1 [Example 48, 6-(4-(1-(2-Fluorophenyl)-4-methyl-1H-1,2,3-triazol-5-yl)-1H-imidazol-1-yl)nicotinamide]
12.6 nM | Cc1nnn(-c2ccc(F)cc2)c1-c1cn(-c2ccc(C(N)=O)cn2)cn1 [Example 40, 6-(4-(1-(4-Fluorophenyl)-4-methyl-1H-1,2,3-triazol-5-yl)-1H-imidazol-1-yl)nicotinamide]
18.8 nM | Cn1nnc(-c2ccc(F)cc2)c1-c1cn(-c2ccc(C(N)=O)cc2)cn1 [Example 7, 4-{4-[5-(4-Fluoro-phenyl)-3-methyl-3H-[1,2,3]triazol-4-yl]-imidazol-1-yl}-benzamide]
16.2 nM | COC(=O)c1ccc(-n2cnc(-c3c(-c4ccccc4F)nnn3C)c2)nc1 [Example 20, Methyl 6-(4-(4-(2-fluorophenyl)-1-methyl-1H-1,2,3-triazol-5-yl)-1H-imidazol-1-yl)nicotinate]
32.7 nM | Cc1nnn(-c2ccccc2F)c1-c1cn(-c2ccc(C(=O)NCC3CC3)cn2)cn1 [Example 53, N-(Cyclopropylmethyl)-6-(4-(1-(2-fluorophenyl)-4-methyl-1H-1,2,3-triazol-5-yl)-1H-imidazol-1-yl)nicotinamide]
9.6 nM | Cc1nnn(-c2ccc(F)cc2)c1-c1cn(-c2ccc(C(=O)NC3(C)COC3)cn2)cn1 [Example 38, 6-(4-(1-(4-Fluorophenyl)-4-methyl-1H-1,2,3-triazol-5-yl)-1H-imidazol-1-yl)-N-(3-methyloxetan-3-yl)nicotinamide]
19.3 nM | Cn1nnc(-c2ccccc2F)c1-c1cn(-c2ccc(C(N)=O)cn2)cn1 [Example 25, 6-(4-(4-(2-Fluorophenyl)-1-methyl-1H-1,2,3-triazol-5-yl)-1H-imidazol-1-yl)nicotinamide]
